In ChEMBL document CHEMBL5042509, “Benzophenone Glucosides and B-Type Proanthocyanidin Dimers from Zambian Cassia abbreviata and Their Trypanocidal Activities” (J Nat Prod, 2022):
≈ marks a conversion by molar mass, not a printed value.

Key:
[1] = tested on: Trypanosoma brucei brucei; assay: Trypanocidal activity against Trypanosoma brucei brucei GUTat3.1 assessed as parasite growth inhibition at 50 ug/ml incubated for 3 days by Celltiter-Glo luminescence assay; format: functional; parameters: scale not given: the % may be the effect or the level left; details: dose 50 µg/ml; time 3 day
[2] = tested on: Trypanosoma brucei rhodesiense; assay: Trypanocidal activity against Trypanosoma brucei rhodesiense assessed as parasite growth inhibition at 50 ug/ml incubated for 3 days by Celltiter-Glo luminescence assay; format: functional; parameters: scale not given: the % may be the effect or the level left; details: dose 50 µg/ml; time 3 day
[3] = tested on: Trypanosoma congolense; assay: Trypanocidal activity against Trypanosoma congolense IL3000 assessed as parasite growth inhibition at 50 ug/ml incubated for 3 days by Celltiter-Glo luminescence assay; parameters: scale not given: the % may be the effect or the level left; details: dose 50 µg/ml; time 3 day
[4] = tested on: Trypanosoma evansi; assay: Trypanocidal activity against Trypanosoma evansi assessed as parasite growth inhibition at 50 ug/ml incubated for 3 days by Celltiter-Glo luminescence assay; format: functional; parameters: scale not given: the % may be the effect or the level left; details: dose 50 µg/ml; time 3 day
[5] = tested on: Trypanosoma brucei gambiense; assay: Trypanocidal activity against Trypanosoma brucei gambiense IL1922 assessed as parasite growth inhibition at 50 ug/ml incubated for 3 days by Celltiter-Glo luminescence assay; format: functional; parameters: scale not given: the % may be the effect or the level left; details: dose 50 µg/ml; time 3 day
[6] = tested on: Trypanosoma brucei rhodesiense; assay: Trypanocidal activity against Trypanosoma brucei rhodesiense IL1501 assessed as parasite growth inhibition at 50 ug/ml incubated for 3 days by Celltiter-Glo luminescence assay; format: functional; parameters: scale not given: the % may be the effect or the level left; details: dose 50 µg/ml; time 3 day
[7] = tested on: Trypanosoma congolense; assay: Trypanocidal activity against Trypanosoma congolense IL3000 assessed as parasite growth inhibition incubated for 3 days by Celltiter-Glo luminescence assay; details: IL3000, 72 h
[8] = tested on: Trypanosoma brucei rhodesiense; assay: Trypanocidal activity against Trypanosoma brucei rhodesiense assessed as parasite growth inhibition incubated for 3 days by Celltiter-Glo luminescence assay; format: functional, organism-based; details: 72 h
[9] = tested on: Trypanosoma evansi; assay: Trypanocidal activity against Trypanosoma evansi assessed as parasite growth inhibition incubated for 3 days by Celltiter-Glo luminescence assay; format: functional, organism-based; details: 72 h

Structure (SMILES)	Activity [1] [%]	Activity [2] [%]	Activity [3] [%]	Activity [4] [%]	Activity [5] [%]	Activity [6] [%]	IC50 [7] [µg/mL]	IC50 [8] [µg/mL]	IC50 [9] [µg/mL]
COc1ccc(O[C@@H]2O[C@H](CO)[C@@H](O)[C@H](O)[C@H]2O)cc1OC	0	8.9	0	0	0	0	–	–	–
Oc1ccc([C@H]2Oc3cc(O)ccc3[C@H](c3c(O)cc(O)c4c3O[C@H](c3cc(O)c(O)c(O)c3)[C@H](O)C4)[C@@H]2O)cc1	0	99.9	99.67	99.69	26.1	13.65	15.3 (≈ 27.3 µM)	3.91 (≈ 6.95 µM)	23.2 (≈ 41.2 µM)
Cc1cc(O)c(C(=O)c2c(O)cccc2O[C@@H]2O[C@H](CO)[C@@H](O)[C@H](O)[C@H]2O)c(C(=O)O)c1	15.74	34.99	20.76	0	5.44	2.22	–	–	–
Oc1ccc2c(c1)O[C@H](c1cc(O)c(O)c(O)c1)[C@@H](O)[C@H]2c1c(O)cc(O)c2c1O[C@H](c1ccc(O)c(O)c1)[C@H](O)C2	44.09	100.09	100.13	100.24	83.48	60.48	7.15 (≈ 12.4 µM)	5.42 (≈ 9.37 µM)	5.51 (≈ 9.52 µM)
COc1cc(O[C@@H]2O[C@H](CO)[C@@H](O)[C@H](O)[C@H]2O[C@@H]2O[C@@H](C)[C@H](OC(C)=O)[C@@H](OC(C)=O)[C@H]2OC(C)=O)cc(OC)c1OC	44.45	89.65	91.43	0	38.79	27.17	40.9 (≈ 66.1 µM)	33.3 (≈ 53.8 µM)	–
Oc1ccc([C@H]2Oc3cc(O)ccc3[C@@H](c3c(O)cc(O)c4c3O[C@H](c3cc(O)c(O)c(O)c3)[C@H](O)C4)[C@@H]2O)cc1	48.67	90.97	69.89	69.94	57.94	57.75	5.32 (≈ 9.46 µM)	4.13 (≈ 7.34 µM)	3.32 (≈ 5.9 µM)
COc1cc(O[C@@H]2O[C@H](CO)[C@@H](O)[C@H](O)[C@H]2O[C@@H]2O[C@@H](C)[C@H](O)[C@@H](O)[C@H]2O)cc(OC)c1OC	0.72	5.42	0	0	0.1	2.26	–	–	–
Oc1ccc([C@H]2Oc3cc(O)ccc3[C@@H](c3c(O)cc(O)c4c3O[C@H](c3ccc(O)c(O)c3)[C@@H](O)C4)[C@@H]2O)cc1	20.95	88.52	20.82	0	6.42	6.96	–	–	–
Oc1ccc([C@H]2Oc3cc(O)ccc3[C@H](c3c(O)cc(O)c4c3O[C@H](c3ccc(O)c(O)c3)[C@H](O)C4)[C@@H]2O)cc1	13.03	59.53	35.26	0	10.01	1.57	–	–	–
COc1ccc(O[C@@H]2O[C@H](CO)[C@@H](O)[C@H](O)[C@H]2O[C@@H]2OC[C@](O)(CO)[C@H]2O)cc1OC	0	2.69	0	0.6	0	0	–	–	–
COc1cc(C(=O)O)cc(OC)c1O[C@@H]1O[C@H](CO)[C@@H](O)[C@H](O)[C@H]1O	9.64	53.1	0	0	14.44	20.63	–	–	–
Cc1cc(O[C@@H]2O[C@H](CO)[C@@H](O)[C@H](O)[C@H]2O)c(C(=O)c2c(O)cccc2O)c(C(=O)O)c1	18.9	85.05	–	29.06	7.09	3.46	–	–	–
Oc1ccc2c(c1)O[C@H](c1ccc(O)c(O)c1)[C@@H](O)[C@@H]2c1c(O)cc(O)c2c1O[C@H](c1ccc(O)c(O)c1)[C@@H](O)C2	20.31	99.6	36.23	32.9	4.59	2.52	–	–	–
Oc1ccc([C@H]2Oc3c(c(O)cc(O)c3[C@@H]3c4ccc(O)cc4O[C@H](c4ccc(O)c(O)c4)[C@H]3O)C[C@H]2O)cc1	16.43	90.49	33.1	0	10.09	9.66	–	–	–
Oc1ccc([C@H]2Oc3cc(O)ccc3[C@@H](c3c(O)cc(O)c4c3O[C@H](c3cc(O)c(O)c(O)c3)[C@@H](O)C4)[C@@H]2O)cc1	35.39	99.92	99.74	99.77	26.67	20.49	7.53 (≈ 13.4 µM)	4.02 (≈ 7.15 µM)	14.9 (≈ 26.5 µM)
Oc1ccc2c(c1)O[C@H](c1ccc(O)c(O)c1)[C@@H](O)[C@H]2c1c(O)cc(O)c2c1O[C@H](c1ccc(O)c(O)c1)[C@H](O)C2	12.85	82.26	37.33	4.88	9.9	19.57	–	–	–
COc1cc(O[C@@H]2O[C@H](CO)[C@@H](O)[C@H](O)[C@H]2O[C@@H]2OC[C@](O)(CO)[C@H]2O)cc(OC)c1OC	0	60.74	0	0	0	0.73	–	–	–
Oc1ccc2c(c1)O[C@H](c1ccc(O)c(O)c1)[C@@H](O)[C@H]2c1c(O)cc(O)c2c1O[C@H](c1cc(O)c(O)c(O)c1)[C@H](O)C2	26.31	100.02	99.96	100.12	73.09	42.7	9.26 (≈ 16 µM)	6.79 (≈ 11.7 µM)	6.52 (≈ 11.3 µM)
Oc1cc(O)c2c(c1)O[C@H](c1ccc(O)c(O)c1)[C@H](O)C2 [(-)-EPICATECHIN]	29.77	74.01	13.33	54.44	11.49	8.81	–	–	–
COc1cc(O)cc(OC)c1OC [ANTIAROL]	32.18	94.68	1.68	0	43.51	20.12	–	24.9 (≈ 135 µM)	–
Oc1cc(O)c2c(c1)O[C@H](c1ccc(O)c(O)c1)[C@@H](O)C2 [CIANIDANOL]	22.82	100.03	22.03	66.43	9.71	2.35	–	47.6 (≈ 164 µM)	14.9 (≈ 51.3 µM)
CC1CS(=O)(=O)CCN1/N=C/c1ccc([N+](=O)[O-])o1 (configuration not stated) [NIFURTIMOX]	–	–	–	–	–	–	0.3 (≈ 1.04 µM)	0.42 (≈ 1.46 µM)	–
